In the supplement of paper PMC10307832:

These cell lines were tested with CC1(COc2ccc3c(c2)ncn3-c2ccc3cccc(N4CCC(N)CC4)c3n2)COC1 [Crenolanib] + CCNC(=O)c1noc(-c2cc(C(C)C)c(O)cc2O)c1-c1ccc(CN2CCOCC2)cc1 [Luminespib] (partner 0.01 µM) (assay: relative viability (nuclei count vs DMSO), 5 days (fraction); higher = more cells survive). Details: first compound 1 µM.
Summary of the method: (§1)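 Medians of duplicate plates are given as relative viability. That measure is the nuclei count in treated wells divided by the count in vehicle wells. Counts were taken on 4× images of lung cancer cell lines in 1536-well plates, 5 days after pin-tool dosing the day after seeding with one drug alone or a fixed anchor-drug dose plus five library-drug doses (not always all listed) in √10 steps.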

Row | Cell Line | relative viability
1 | SW 900 | 0.196
2 | LXF-289 | 0.711
3 | BEN | 0.32
4 | HCC-15 | 0.302
5 | HCC-827 | 0.6
6 | NCI-H1563 | 0.478
7 | NCI-H1792 | 0.429

Each cell line was assayed with CC1(COc2ccc3c(c2)ncn3-c2ccc3cccc(N4CCC(N)CC4)c3n2)COC1 [Crenolanib] + Cc1nc(Nc2ncc(C(=O)Nc3c(C)cccc3Cl)s2)cc(N2CCN(CCO)CC2)n1 [Dasatinib] (partner 0.075 µM) in the same assay as above. Details: first compound 0.01 µM.
Summary of the method: as §1

Row | Cell Line | relative viability
8 | NCI-H522 | 0.987
9 | NCI-H1623 | 0.55
10 | NCI-H838 | 0.262
11 | NCI-H1651 | 0.504
12 | NCI-H1734 | 0.502
13 | NCI-H2009 | 0.323
14 | EPLC-272H | 0.35
15 | PC-14 | 0.289
16 | LCLC-97TM1 | 0.877
17 | NCI-H596 | 0.716
18 | NCI-H2228 | 0.488
19 | EMC-BAC-2 | 0.369
20 | NCI-H2087 | 0.809
21 | NCI-H647 | 0.175
22 | LK-2 | 0.378
23 | NCI-H2126 | 0.595
24 | NCI-H2342 | 0.338
25 | SK-MES-1 | 0.39

Row | Cell Line | relative viability
26 | HARA | 0.234
27 | COR-L23 | 0.497
28 | COR-L 105 | 0.453
29 | LC-2-ad | 0.707
30 | LU99A | 0.492
31 | ChaGo-K-1 | 0.6
32 | NCI-H2170 | 0.697
33 | NCI-H3122 | 0.862
34 | HCC-78 | 0.389
35 | SW 900 | 0.719
36 | LXF-289 | 0.194
37 | BEN | 0.281
38 | HCC-15 | 0.645
39 | HCC-827 | 0.338
40 | NCI-H1563 | 0.452
41 | NCI-H1792 | 0.779
42 | HCC-366 | 0.655

Same assay, conditions: first compound 0.03162 µM

Row | Cell Line | relative viability
43 | NCI-H522 | 1.01
44 | NCI-H1623 | 0.515
45 | NCI-H838 | 0.294
46 | NCI-H1651 | 0.377
47 | NCI-H1734 | 0.427
48 | NCI-H2009 | 0.297
49 | EPLC-272H | 0.349
50 | PC-14 | 0.262
51 | LCLC-97TM1 | 0.883
52 | NCI-H596 | 0.655
53 | NCI-H2228 | 0.555
54 | EMC-BAC-2 | 0.312
55 | NCI-H2087 | 1.03
56 | NCI-H647 | 0.209
57 | LK-2 | 0.253
58 | NCI-H2126 | 0.635
59 | NCI-H2342 | 0.304
60 | SK-MES-1 | 0.448

Row | Cell Line | relative viability
61 | HARA | 0.256
62 | COR-L23 | 0.466
63 | COR-L 105 | 0.315
64 | LC-2-ad | 0.555
65 | LU99A | 0.579
66 | ChaGo-K-1 | 0.579
67 | NCI-H2170 | 0.569
68 | NCI-H3122 | 0.73
69 | HCC-78 | 0.314
70 | SW 900 | 0.725
71 | LXF-289 | 0.228
72 | BEN | 0.256
73 | HCC-15 | 0.678
74 | HCC-827 | 0.33
75 | NCI-H1563 | 0.41
76 | NCI-H1792 | 0.777
77 | HCC-366 | 0.662

Same assay, conditions: first compound 0.1 µM

Row | Cell Line | relative viability
78 | NCI-H522 | 0.899
79 | NCI-H1623 | 0.548
80 | NCI-H838 | 0.273
81 | NCI-H1651 | 0.373
82 | NCI-H1734 | 0.468
83 | NCI-H2009 | 0.257
84 | EPLC-272H | 0.317
85 | PC-14 | 0.259
86 | LCLC-97TM1 | 0.857
87 | NCI-H596 | 0.627
88 | NCI-H2228 | 0.519
89 | EMC-BAC-2 | 0.315
90 | NCI-H2087 | 0.694
91 | NCI-H647 | 0.196
92 | LK-2 | 0.382
93 | NCI-H2126 | 0.604
94 | NCI-H2342 | 0.307

Row | Cell Line | relative viability
95 | SK-MES-1 | 0.358
96 | HARA | 0.3
97 | COR-L23 | 0.475
98 | COR-L 105 | 0.383
99 | LC-2-ad | 0.486
100 | LU99A | 0.669
101 | ChaGo-K-1 | 0.617
102 | NCI-H2170 | 0.591
103 | NCI-H3122 | 0.782
104 | SW 900 | 0.595
105 | LXF-289 | 0.253
106 | BEN | 0.363
107 | HCC-15 | 0.66
108 | HCC-827 | 0.398
109 | NCI-H1563 | 0.472
110 | NCI-H1792 | 0.751
111 | HCC-366 | 0.593

Same assay, conditions: first compound 0.3162 µM

Row | Cell Line | relative viability
112 | NCI-H522 | 0.854
113 | NCI-H1623 | 0.558
114 | NCI-H838 | 0.28
115 | NCI-H1651 | 0.531
116 | NCI-H1734 | 0.465
117 | NCI-H2009 | 0.294
118 | EPLC-272H | 0.391
119 | PC-14 | 0.263
120 | LCLC-97TM1 | 0.949
121 | NCI-H596 | 0.675
122 | NCI-H2228 | 0.46
123 | EMC-BAC-2 | 0.313
124 | NCI-H2087 | 1.07
125 | NCI-H647 | 0.189
126 | LK-2 | 0.231
127 | NCI-H2126 | 0.74
128 | NCI-H2342 | 0.338
129 | SK-MES-1 | 0.409

Row | Cell Line | relative viability
130 | HARA | 0.246
131 | COR-L23 | 0.54
132 | COR-L 105 | 0.42
133 | LC-2-ad | 0.741
134 | LU99A | 0.581
135 | ChaGo-K-1 | 0.585
136 | NCI-H2170 | 0.598
137 | NCI-H3122 | 0.963
138 | HCC-78 | 0.354
139 | SW 900 | 0.581
140 | LXF-289 | 0.237
141 | BEN | 0.345
142 | HCC-15 | 0.701
143 | HCC-827 | 0.366
144 | NCI-H1563 | 0.464
145 | NCI-H1792 | 0.866
146 | HCC-366 | 0.648

Same assay, conditions: first compound 1 µM

Row | Cell Line | relative viability
147 | NCI-H522 | 0.975
148 | NCI-H1623 | 0.504
149 | NCI-H838 | 0.219
150 | NCI-H1651 | 0.336
151 | NCI-H1734 | 0.453
152 | NCI-H2009 | 0.227
153 | EPLC-272H | 0.532
154 | PC-14 | 0.266
155 | LCLC-97TM1 | 0.67
156 | NCI-H596 | 0.538
157 | NCI-H2228 | 0.518
158 | EMC-BAC-2 | 0.307
159 | NCI-H2087 | 0.818
160 | NCI-H647 | 0.201
161 | LK-2 | 0.249
162 | NCI-H2126 | 0.616
163 | NCI-H2342 | 0.316
